# Key:
# COX-2 = molecular target: T1, COX-2 (Mus musculus, UniProt Q05769); assay: Evaluation of COX-2's inhibition efficacy (PGE2 radioimmuno assay, LPS-induced, aspirin-pretreated peritoneal macrophages); format: cell-based, C57BL/6 mouse
# T1 construct: endogenous in cells; host or cells: peritoneal macrophages of C57BL/6 mouse, aspirin-pretreated, LPS-induced
# T1 sequence (Q05769 18-604): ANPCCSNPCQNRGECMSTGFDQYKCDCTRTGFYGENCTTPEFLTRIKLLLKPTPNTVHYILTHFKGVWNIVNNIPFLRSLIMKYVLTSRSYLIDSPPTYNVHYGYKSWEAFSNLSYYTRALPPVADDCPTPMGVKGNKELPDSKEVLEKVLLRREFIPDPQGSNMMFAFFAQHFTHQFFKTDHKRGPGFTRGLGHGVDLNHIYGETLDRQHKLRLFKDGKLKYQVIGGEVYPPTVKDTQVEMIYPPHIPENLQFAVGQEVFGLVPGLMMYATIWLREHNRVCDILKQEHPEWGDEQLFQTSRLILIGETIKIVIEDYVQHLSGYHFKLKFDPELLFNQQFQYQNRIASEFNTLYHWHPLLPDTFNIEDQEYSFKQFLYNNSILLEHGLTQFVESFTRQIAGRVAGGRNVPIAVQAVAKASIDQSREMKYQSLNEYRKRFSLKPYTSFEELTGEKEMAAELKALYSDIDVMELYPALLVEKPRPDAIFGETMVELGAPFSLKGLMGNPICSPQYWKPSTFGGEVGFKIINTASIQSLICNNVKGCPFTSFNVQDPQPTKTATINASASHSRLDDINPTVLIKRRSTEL
# Procedure: Regarding the compounds in the above Examples and indomethacin, the inhibition efficacy of COX-2 and COX-1 are being measured by the following two methods. […] Evaluation of COX-2's Inhibition Efficacy (J. Pharmacol. Exp. […] After cleaning C57BL/6 mouse's abdomen by 70% EtOH, the skin of mouse's abdomen was eliminated cautiously not to harm peritomeum and 5 ml of cold PBS was poured into the abdominal cavity and in certain times later macrophage-bleeding abdominal-liquid was collected by syringe. […] After putting 1 ml cell suspension having cell number of 1×10^6 cells/mu into each 24-well microtiter plates, macrophages were adhered to the bottom of plate by culturing in the condition of 5% CO2/95% O2, at a temperature of 37° C. for 2 hours. Other cells not being adhered to were eliminated by washing two times with PBS. The purity of macrophages obtained through this process was identified by differential counting. […] After inducing COX-2 by LPS, the cell culture medium was eliminated and macrophages was washed two times with PBS. And 1 ml of RRPI-1640 badge was added to each well again and after treating them with sample with appropriate concentration, they were cultured at a temperature of 37i É for 10 minutes. And then treated them with arachidonic acid to make their final concentration as 10 μM and cultured them additional 10 minutes, all the supernatant liquid of reaction was obtained. The amount of PGE2 produced in the supernatant liquid of reaction was determined by the PGE2 radioimmuno assay.
# COX-1 = molecular target: T2, COX-1 (Mus musculus, UniProt P22437); assay: Evaluation of COX-1's inhibition efficacy (macrophages without aspirin and LPS pre-treatment); format: cell-based, C57BL/6 mouse
# T2 construct: there is no pre-treatment of aspirin and LPS in the adhesion of macrophage; endogenous in cells; host or cells: peritoneal macrophages of C57BL/6 mouse, without aspirin and LPS pre-treatment
# T2 sequence (P22437 27-602): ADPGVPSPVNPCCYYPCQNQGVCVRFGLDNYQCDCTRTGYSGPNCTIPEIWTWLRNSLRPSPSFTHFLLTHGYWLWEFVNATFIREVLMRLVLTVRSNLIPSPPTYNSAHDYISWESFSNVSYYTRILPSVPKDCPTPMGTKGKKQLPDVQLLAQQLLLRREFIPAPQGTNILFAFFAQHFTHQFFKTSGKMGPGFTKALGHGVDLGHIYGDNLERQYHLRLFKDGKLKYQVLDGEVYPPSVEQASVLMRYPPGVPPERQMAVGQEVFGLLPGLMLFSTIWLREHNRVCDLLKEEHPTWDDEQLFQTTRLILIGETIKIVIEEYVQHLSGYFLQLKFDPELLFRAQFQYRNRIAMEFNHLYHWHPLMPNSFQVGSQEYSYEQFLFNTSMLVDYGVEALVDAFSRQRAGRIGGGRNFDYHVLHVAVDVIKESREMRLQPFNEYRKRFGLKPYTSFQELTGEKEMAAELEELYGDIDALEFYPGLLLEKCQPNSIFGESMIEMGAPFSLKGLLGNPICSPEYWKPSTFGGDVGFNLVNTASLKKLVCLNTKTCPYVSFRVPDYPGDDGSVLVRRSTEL
# Procedure: Regarding the compounds in the above Examples and indomethacin, the inhibition efficacy of COX-2 and COX-1 are being measured by the following two methods.
# After cleaning C57BL/6 mouse's abdomen by 70% EtOH, the skin of mouse's abdomen was eliminated cautiously not to harm peritomeum and 5 ml of cold PBS was poured into the abdominal cavity and in certain times later macrophage-bleeding abdominal-liquid was collected by syringe. By adding RPMI-1640 badge containing penicillin(100 unit/mt) and streptomycin([…]) to cell pellet obtained by centrifugation of collected liquid about 5 minutes in 1500 rpm, it was disperesed and also COX-1 existing in the cell was inactivated by treating with 500 μM aspirin. After putting 1 ml cell suspension having cell number of 1×10^6 cells/mu into each 24-well microtiter plates, macrophages were adhered to the bottom of plate by culturing in the condition of 5% CO2/95% O2, at a temperature of 37° C. for 2 hours. Other cells not being adhered to were eliminated by washing two times with PBS. The purity of macrophages obtained through this process was identified by differential counting. After adding RPMI-1640 badge(normally 5×10^5 cell/ml) containing 3% right fetal blood serum to macrophage and treating it with LPS(lipopolysaccharide) to make final concentration as 10 μg/ml, it was cultured in the condition of 5% CO2, at a temperature of 37° C. for 16 hours. After inducing COX-2 by LPS, the cell culture medium was eliminated and macrophages was washed two times with PBS. And 1 ml of RRPI-1640 badge was added to each well again and after treating them with sample with appropriate concentration, they were cultured at a temperature of 37i É for 10 minutes. And then treated them with arachidonic acid to make their final concentration as 10 μM and cultured them additional 10 minutes, all the supernatant liquid of reaction was obtained. The amount of PGE2 produced in the supernatant liquid of reaction was determined by the PGE2 radioimmuno assay. The 100% COX-2's activation is referenced by the difference of the amount of PGE2 produced in the supernatant liquid of reaction between with 10 μM arachidonic acid treatment and without 10 μM arachidonic acid treatment.
# 2. Evaluation of COX-1's Inhibition Efficacy
# Following the same procedure as the above evaluation of COX-2's inhibition efficacy, but there is no pre-treatment of aspirin and LPS in the adhesion of macrophage.
Structure (SMILES),inhibition at 0.1 µg/mL (COX-2; 0.1 μg/ml) [%],inhibition at 1 µg/mL (COX-2; 1 μg/ml) [%],inhibition at 10 µg/mL (COX-2; 10 μg/ml) [%],inhibition at 10 µg/mL (COX-1; 10 μg/ml) [%],inhibition at 1 µg/mL (COX-1; 1 μg/ml) [%],other results
"CS(=O)(=O)c1ccc(-c2oc3ccccc3c(=O)c2-c2cccc(Cl)c2Cl)cc1 [Example 14, 3-(2,3-Dichlorophenyl)-2-(4-(methylsulfonyl)phenyl)-4H-1-benzopyran-4-one]",18,32,71,–,–,–
"Cc1cccc(-c2c(-c3ccc(S(C)(=O)=O)cc3)oc3ccccc3c2=O)c1 [Example 22, 3-(3-Methylphenyl)-2-(4-(methylsulfonyl)phenyl)-4H-1-benzopyran-4-one]",14,82,90,–,–,–
"Cc1ccccc1-c1c(-c2ccc(S(C)(=O)=O)cc2)oc2ccccc2c1=O [Example 23, 3-(2-Methylphenyl)-2-(4-(methylsulfonyl)phenyl)-4H-1-benzopyran-4-one]",23,84,97,–,–,–
"CS(=O)(=O)c1ccc(-c2oc3ccccc3c(=O)c2-c2cccc(Cl)c2)cc1 [Example 24, 3-(3-Chlorophenyl)-2-(4-(methylsulfonyl)phenyl)-4H-1-benzopyran-4-one]",22,86,95,–,–,–
"CS(=O)(=O)c1ccc(-c2oc3ccccc3c(=O)c2-c2ccccn2)cc1 [Example 33, 2-(4-(Methylsulfonyl)phenyl)-3-(2-pyridinyl)-4H-1-benzopyran-4-one]",–,27,44,17,–,–
"NS(=O)(=O)c1ccc(-c2oc3ccc(F)cc3c(=O)c2-c2ccccc2)cc1 [Example 47, 2-(4-(Aminosulfonyl)phenyl)-6-fluoro-3-phenyl-4H-1-benzopyran-4-one]",23,86,–,–,–,–
"NS(=O)(=O)c1ccc(-c2oc3ccccc3c(=O)c2-c2ccc3c(c2)OCO3)cc1 [Example 54, 2-(4-(Aminosulfonyl)phenyl)-3-((3,4-methylenedioxy)phenyl)-4H-1-benzopyran-4-one]",–,–,–,–,–,Inhibition (%) COX-2 (COX-2; 0.1 μg/ml): 20%; Inhibition (%) COX-2 (COX-2; 1 μg/ml): 84%; Inhibition (%) COX-1 (COX-1; 10 μg/ml): 75%
"CSc1ccc(-c2c(-c3ccc(S(N)(=O)=O)cc3)oc3ccccc3c2=O)cc1 [Example 56, 2-(4-(Aminosulfonyl)phenyl)-3-((4-methylthio)phenyl)-4H-1-benzopyran-4-one]",–,–,–,–,–,Inhibition (%) COX-2 (COX-2; 0.1 μg/ml): 53%; Inhibition (%) COX-2 (COX-2; 1 μg/ml): 84%; Inhibition (%) COX-2 (COX-2; 10 μg/ml): 90%; Inhibition (%) COX-1 (COX-1; 1 μg/ml): 77%; Inhibition (%) COX-1 (COX-1; 10 μg/ml): 90%
"NS(=O)(=O)c1ccc(-c2oc3cc(F)ccc3c(=O)c2-c2ccc(F)cc2)cc1 [Example 59, 2-(4-(Aminosulfonyl)phenyl)-7-fluoro-3-(4-fluorophenyl)-4H-1-benzopyran-4-one]",39,100,–,–,–,–
"NS(=O)(=O)c1ccc(-c2oc3cc(F)ccc3c(=O)c2-c2ccccc2F)cc1 [Example 60, 2-(4-(Aminosulfonyl)phenyl)-7-fluoro-3-(2-fluorophenyl)-4H-1-benzopyran-4-one]",43,100,–,–,–,–
"NS(=O)(=O)c1ccc(-c2oc3cc(F)ccc3c(=O)c2-c2cccc(F)c2)cc1 [Example 61, 2-(4-(Aminosulfonyl)phenyl)-7-fluoro-3-(3-fluorophenyl)-4H-1-benzopyran-4-one]",69,97,–,38,22,–
"NS(=O)(=O)c1ccc(-c2oc3cc(F)ccc3c(=O)c2-c2ccc(Cl)c(Cl)c2)cc1 [Example 62, 2-(4-(Aminosulfonyl)phenyl)-7-fluoro-3-(3,4-dichlorophenyl)-4H-1-benzopyran-4-one]",89,100,–,76,54,–
"COc1ccc2c(=O)c(-c3ccc(F)cc3)c(-c3ccc(S(N)(=O)=O)cc3)oc2c1 [Example 64, 2-(4-(Aminosulfonyl)phenyl)-7-methoxy-3-(4-fluorophenyl)-4H-1-benzopyran-4-one]",< 5,52,47,–,–,–
"COc1ccc(Cl)c2oc(-c3ccc(S(N)(=O)=O)cc3)c(-c3ccc(F)cc3)c(=O)c12 [Example 65, 2-(4-(Aminosulfonyl)phenyl)-8-chloro-3-(4-fluorophenyl)-5-methoxy-4H-1-benzopyran-4-one]",–,67,93,73,24,–
"NS(=O)(=O)c1ccc(-c2oc3c(Cl)ccc(O)c3c(=O)c2-c2ccc(F)cc2)cc1 [Example 66, 2-(4-(Aminosulfonyl)phenyl)-8-chloro-3-(4-fluorophenyl)-5-hydroxy-4H-1-benzopyran-4-one]",–,83,90,80,40,–
"NS(=O)(=O)c1ccc(-c2oc3ccc(F)cc3c(=S)c2-c2ccc(F)cc2)cc1 [Example 68, 2-(4-(Aminosulfonyl)phenyl)-6-fluoro-3-(4-fluorophenyl)-4H-1-benzopyran-4-thione]",89,100,–,83,58,–
"NS(=O)(=O)c1ccc(-c2oc3ccccc3c(=S)c2-c2ccc(F)cc2)cc1 [Example 69, 2-(4-(Aminosulfonyl)phenyl)-3-(4-fluorophenyl)-4H-1-benzopyran-4-thione]",42,98,100,90,68,–

# Source: patent US6340694B1, “Diarylbenzopyran derivatives as cyclooxygenase-2 inhibitors” (Pacific Corporation, priority 1998, dated 2002)
